The values that follow are results of earlier work, collected in US5998415A, “Bicyclic heteroaryl-alkylene-(homo)piperazinones and thione analogues thereof, their preparation, and their use of as selective agonists of 5-HT1 -like receptors” (Merck Sharp & Dohme Ltd., priority 1995, dated 1999).

For series [1], the system named is human 5-HT1Dα and 5-HT1Dβ receptor subtypes. The conditions noted are these: cf. WO-A-91/17174, Table 1.
For series [2] the following is noted: humans, therapeutic doses.

For `CNS(=O)(=O)Cc1ccc2[nH]cc(CCN(C)C)c2c1` [sumatriptan], in series [1], the “discrimination between the human 5-HT1Dα and 5-HT1Dβ receptor subtypes (in words)” value was “barely discriminates between the human 5-HT1Dα and 5-HT1Dβ receptor subtypes”. The “adverse cardiovascular events (in words)” value in series [2] is reported as “certain adverse cardiovascular events”.
